Reference: publication PMC3387026, “Substrate Cooperativity in Marine Luciferases” (PLoS ONE, 2012)

Legend:
Assay in all cases: bioluminescence (luminometer), light integrated over first […] s
Type in all cases: biochemical
Details in all cases: Tris-HCl pH 7.5, BSA; varied luciferin; O2 co-substrate
GLuc [1] = molecular target: T1, GLuc (Gaussia princeps (in: crustaceans), UniProt Q9BLZ2, M60L/M127L)
T1 construct: amino-terminal His tag, expressed in E. coli SHuffle, nickel-purified

GLuc [2] = molecular target: T2, GLuc (Gaussia princeps (in: crustaceans), UniProt Q9BLZ2)
T2 construct: amino-terminal His tag, expressed in E. coli SHuffle, nickel-purified
T2 sequence (Q9BLZ2 entry or part of it): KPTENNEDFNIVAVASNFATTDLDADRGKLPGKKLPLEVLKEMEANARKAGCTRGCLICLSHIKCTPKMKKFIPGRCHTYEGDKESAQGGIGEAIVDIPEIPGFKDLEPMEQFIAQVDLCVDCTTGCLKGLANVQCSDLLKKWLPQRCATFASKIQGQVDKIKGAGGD

RLuc = molecular target: T3, RLuc (Renilla reniformis, UniProt P27652)
T3 construct: His-tagged, expressed in NEB T7 Express cells, nickel-purified; 37 kDa monomer
T3 sequence (P27652 1-311): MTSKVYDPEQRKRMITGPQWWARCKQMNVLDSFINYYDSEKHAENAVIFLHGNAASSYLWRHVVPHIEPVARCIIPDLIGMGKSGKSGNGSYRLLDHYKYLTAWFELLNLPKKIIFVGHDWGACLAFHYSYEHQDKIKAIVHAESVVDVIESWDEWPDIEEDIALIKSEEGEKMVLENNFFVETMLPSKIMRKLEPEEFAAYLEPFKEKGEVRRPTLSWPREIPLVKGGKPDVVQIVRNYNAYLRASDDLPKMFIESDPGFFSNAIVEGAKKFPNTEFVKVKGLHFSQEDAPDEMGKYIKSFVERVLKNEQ

T1 sequence (Q9BLZ2 entry or part of it M60L/M127L): as the sequence (Q9BLZ2 entry or part of it) above, with M43L, M110L counted along it

## Oc1ccc(Cc2nc3c(Cc4ccccc4)nc(-c4ccc(O)cc4)cn3c2O)cc1 [coelenterazine]
GLuc [1]
  bioluminescence (luminometer), light integrated over first 10 s: GLuc, MLuc and the variant GLuc M43L/M110L of Welsh et al.
GLuc [2]
  bioluminescence (luminometer), light integrated over first 10 s: positive cooperative response of the GLuc activity with respect to coelenterazine
RLuc
  bioluminescence (luminometer), light integrated over first 10 s: binding a single molecule of coelenterazine is sufficient for catalysis
